The subject of assay [1] is nascent RNA synthesis in HCT116 p53−/− cells. In words: Nascent RNA detection in cells by 5EU incorporation (click labelling, confocal microscopy). Format: cell-based, human. The conditions noted are these: 30 min treatment then 1 h 5EU. The method, then:
Cells were grown until 50–60% confluent on sterilized glass slides (Superfrost® Plus microscope slides, Menzel-Glaser) and then were treated with compounds or vehicle (as indicated) for 30 min, followed by the addition of 5EU (5-Ethynyl-uridine, 1 mM final concentration) and further incubation for 1 h. The following concentrations were used: Actinomycin D (ActD): 3 µM; ethidium bromide (EB): 40 µM; proflavine (Pro): 2 µM; CX5461: 5 µM.
Cells were fixed with 3.7% paraformaldehyde and permeabilized with 0.5% Triton X-100 in PBS. Nascent RNA was fluorescently labelled using Click-IT® Cell Reaction Buffer Kit (Invitrogen, Waltham, MA, USA) supplemented with Cy5 Azide (Sigma Aldrich) according to manufacturer’s instruction. Nuclei were stained with Hoechst 33342 and images were acquired with a Leica TCS SP5 confocal microscope equipped with an x63 oil-filled objective. Leica Application Suite X (LAS X) software was used for quantification of 5EU incorporation. Box-and-whisker plots of quantification of 5EU incorporation were obtained with Excel. They show the median, the 25% and 75% quantiles, as well as outliers.
Although we see no significant effect of the intercalators and grove-binders on specific Pol-II transcription in vitro we performed experiments aiming to explore effect of these compounds on general level of Pol-II/III transcription in cells. To this end we used two approaches. Firstly, we measure the level of nascent RNA synthesis in […] p53^−/− cells treated with proflavine, ethidium bromide, CX-5461 (specific inhibitor of Pol-I transcription) at concentrations sufficient to inhibit about 90% of Pol-I transcription as shown in Figure 5A. As a control we used high concentration of ActD (3µM) that inhibits activity of all […] polymerases. Cells were treated with the selected compounds or a vehicle for 30 min and then 5EU (5-Ethynyl-uridine) was added and incubation was continued for another hour. During this time, 5EU is incorporated into any newly synthesized RNA, and the level of incorporation can later be assessed using a combination of “click” approach and confocal microscopy.

In assay [2] the test system is Pol II/III transcription in HCT116 p53−/− cells. In words: Pol-II (18 house-keeping genes) and Pol-III transcripts by qPCR in p53 null cells. The class given is cell-based, human. The conditions noted are these: 30 min. The method, then:
(§1) Cells were grown until 70% confluent and then treated with compounds for 30 min. The following concentrations were used: ActD: AD1–3 nM; AD2–3 µM; Camptothecin (CPT): 8 µM; ethidium bromide (EB): 40 µM; crystal violet (CV): 20 µM; Pro: 2 µM; CX5461: 5 µM. RNA was purified using the RNeasy purification kit (Qiagen) following the manufacturer’s instructions and the RNA concentration was determined spectroscopically. A total 1 µg of RNA was converted to cDNA using the High Capacity RNA-to-cDNA reverse transcriptase kit (Applied Biosystems, Waltham, MA, USA). Then 47/45S pre-rRNA levels were analyzed on the LighCycler 480 thermocycler (Roche) using primers and conditions described previously.
(§2) Pol-II and Pol-III transcripts were analyzed as described previously. All signals were normalized to 18S rRNA level. The standard deviation was calculated from three independent experiments.
(§3) As a complimentary approach we also measured the effect of intercalators and grove binders on transcription by Pol-II and Pol-III by determining relative expression levels of 18 house-keeping genes (the Human Housekeeper reference gene plate, Roche) and of three Pol-III dependent genes in intercalator treated and untreated HCT116 p53^−/− and p53^+/+ cells as described previously.
A general note: Quantitative PCR measures a nucleic acid by following its amplification.

Assay [3] relates to Pol-II transcription in HCT116 p53+/+ cells. The assay can be described thus: Pol-II transcripts (18 house-keeping genes) by qPCR in cells expressing wt p53. The class given is cell-based, human. The conditions noted are these: cells expressing wt p53, 30 min; concentrations as Figure S2. On the procedure: as §1, §2, §3
Figure S2. […] Total RNA was isolated, reverse transcribed and analysed by qPCR. […]

In assay [4] the test system is Pol-I specific transcription. The assay can be described thus: Pol-I specific transcription in vitro with or without Top 1 (purified GTFs or HeLa NE; immobilized linear or supercoiled template). Format: biochemical, human. The conditions noted are these: GTFs lacking Top 1 + immobilized linear template, HeLa NE + supercoiled plasmid. On the procedure: Specific Pol I driven transcription reactions were performed as described using 200 ng of supercoiled plasmid DNA or immobilized rDNA promoter. Reactions were supplemented with 1 µL HeLa nuclear extract or with highly purified general transcription factors (GTF: 2 µL SL1, 2.5 µL Pol-I and 0.1 µL UBF). S1 nuclease protection was performed as described with a 60 bp ^32P-5′-end labelled oligonucleotide containing a sequence identical to the region between −20 and +40 of the template strand in the human rRNA gene promoter. […] The standard deviations were calculated from three independent experiments.

Assay [5] has as its system Pol-I transcription (rRNA synthesis) in HCT116 p53−/− cells. The assay can be described thus: IC50 of Pol-I transcription (rRNA synthesis) in cells. The class given is cell-based, human. Conditions: Homo sapiens. The method, then: as §1
Next, we determined IC50 concentrations for EtBr, Pro, CPT, DAPI and CV in cells by measuring the level of Pol-I transcription at various compound concentrations (Table 2). For this assay we used the HCT116 p53^−/− cell line to avoid any effect of p53 dependent repression of Pol-I transcription.

In assay [6] the test system is Pol-I specific transcription (human rRNA gene promoter). The assay can be described thus: In vitro Pol-I specific (promoter-driven) transcription assay, HeLa nuclear extract, S1 nuclease protection. The class given is biochemical. Conditions: 1 µL HeLa nuclear extract, 100 ng plasmid DNA containing rRNA promoter, triplicates. On the procedure:
[…] Reactions were supplemented with 1 µL HeLa nuclear extract or with highly purified general transcription factors (GTF: 2 µL SL1, 2.5 µL Pol-I and 0.1 µL UBF). S1 nuclease protection was performed as described with a 60 bp ^32P-5′-end labelled oligonucleotide containing a sequence identical to the region between −20 and +40 of the template strand in the human rRNA gene promoter. […] The standard deviations were calculated from three independent experiments.
We tested a range of DNA intercalators and minor/major groove binders for the potential to inhibit Pol-I and determined IC50 for each drug using an in vitro Pol-I specific transcription assay. This assay primarily measures the efficiency of the initial stages of transcription which include preinitiation complex (PIC) formation, first phosphodiester bond synthesis and promoter clearance (see reviews and for a detailed description of the Pol-I transcription cycle). The reactions were supplemented with supercoiled rDNA template and HeLa nuclear extract (NE) and the level of specific transcript was determined by S1 nuclease protection assay as described.

Assay [7] deals with Pol-I transcription (47/45S pre-rRNA) in HCT116 p53−/− cells. In words: 47/45S pre-rRNA level in cells by qPCR. The conditions noted are these: 30 min, CPT 8 µM, EB 40 µM, CV 20 µM, Pro 2 µM, CX5461 5 µM (Figure 5A). Format: cell-based, human. On the procedure: as §1, §2
Assay [8] concerns UBF occupancy at the rDNA, HCT116 p53−/− cells. In words: ChIP of the rDNA repeat: UBF occupancy. The class given is cell-based, human. The conditions noted are these: 30 min at IC50 in cells: EB 9.16 µM; CV 5 µM; Pro 0.5 µM. On the procedure: ChIP assays were carried out as described previously. In brief, cells were grown until 70% confluent, then treated with compounds for 30 min. The following concentrations were used: ethidium bromide (EB)—9.16 µM; crystal violet (CV)—5 µM; proflavine (Pro)—0.5 µM. Cells were cross-linked with formaldehyde (final concentration 1%) for 10 min, and the cross-linking stopped by the addition of glycine (final concentration 0.125 M) for 5 min. Cross-linked chromatin was sheared using a Biorupter (Diagenode, Liege, Belgium) until 300-base pair average size. Immunoprecipitation was carried out using chromatin isolated from 1 × 10^6 cells, antibodies listed in Supplementary Table S2 and 30 μL of Protein A/Protein G magnetic beads (Invitrogen). Purified immunoprecipitated DNA was analyzed by two tetraplex quantitative PCR panels designed for eight regions of the rDNA repeat; promoter, intergenic spacer 4 (IGS4), 18S, 5.8S, 28S, terminator, IGS1, and 5′externally transcribed spacer (ETS). […] Signal were quantified using internal standards and specific signals were calculated as a difference between the signals from the specific antibody and from the negative control (an appropriate IgG). Results were expressed as the amount relative to input chromatin and normalized to control IgG levels, with the standard deviations calculated from three independent ChIP experiments. […]

Like-named read-outs stand apart in the source and are kept apart here. Starred links: 1 amine or outer side, 2 acyl side, 3 side chain; linkers in the order of their positions; H or OH if unused. Positions of bridges follow the written chain, without caps; N, C: chain ends. Non-standard residues stand in square brackets, D forms with d. Residues, ends and D or L forms follow the SMILES beside them. Chains are numbered I, II in the order given. Actinocin(9to1) = Cc1c2oc3c(C)ccc(C(=O)[*:1])c3nc-2c(C(=O)[*:2])c(N)c1=O; NMeV = CN[C@H](C(=O)O)C(C)C; Sar = CNCC(=O)O

As to `Cc1c2oc3c(C)ccc(C(=O)N[C@@H]4C(=O)N[C@H](C(C)C)C(=O)N5CCC[C@H]5C(=O)N(C)CC(=O)N(C)[C@@H](C(C)C)C(=O)O[C@@H]4C)c3nc-2c(C(=O)N[C@@H]2C(=O)N[C@H](C(C)C)C(=O)N3CCC[C@H]3C(=O)N(C)CC(=O)N(C)[C@@H](C(C)C)C(=O)O[C@@H]2C)c(N)c1=O` [ActD, Actinomycin D] (I: T[dV]P[Sar][NMeV] / II: T[dV]P[Sar][NMeV]; ester I:1-I:C, II:1-II:C; linker I:N-II:N via Actinocin(9to1)), the “5EU incorporation (RNA synthesis)” value in assay [1] (3 μM) was “almost completely abolished”. The “effect on Pol II/III transcription” value in assay [2] (AD1 3 nM ActD, CPT 8 µM, EB 40 µM, CV 20 µM, Pro 2 µM) is recorded as “did not repress”. Besides, the “transcription of Pol-II targets” value in assay [2] (high concentration of ActD (AD2, 3 µM)) is listed as “causes repression of transcription of all Pol-II targets”. Moreover, the “effect on mRNA levels of the genes tested” value in assay [3] is listed as “quite significant”.
On to `CC[C@@]1(O)C(=O)OCc2c1cc1n(c2=O)Cc2cc3ccccc3nc2-1` [Camptothecin], for which the “effect on Pol-I specific transcription” value in assay [4] is recorded as “represses Pol-I specific transcription under all conditions”. Further, the half-maximal inhibitory concentration (IC50) in assay [5] (HCT-116, read-out: IC50 (rRNA Synthesis)) stood at 1.99 µM.
Regarding `Nc1ccc2cc3ccc(N)cc3nc2c1` [Proflavine, proflavine], the IC50 in assay [6] amounted to 0.35 µM; in assay [5] (HCT-116, p53 null HCT116 cells, triplicates, total RNA analyzed by S1 nuclease protection assay, read-out: IC50 (rRNA Synthesis)), 0.476 µM. Moreover, the “distribution (nucleolar localization) of nascent RNAs” value in assay [1] (EB 40 µM, Pro 2 µM, CX5461 5 µM) was “affected the distribution of nascent RNAs”. Further, the “inhibition of all transcription (5EU incorporation), effect of ActD set to be 100% inhibition” value in assay [1] (HCT116 p53−/− cells, EB 40 µM, Pro 2 µM, CX5461 5 µM) turned out to be 48%. Further, the “inhibition of Pol-I transcription” value in assay [7] was “about 90%”. For the same compound, the UBF occupancy entry in assay [8] is given as “affected”.

The IC50 is the concentration at which inhibition is half-maximal.

These data come from paper PMC8466728, “DNA Intercalators Inhibit Eukaryotic Ribosomal RNA Synthesis by Impairing the Initiation of Transcription” (Genes, 2021).
